Experimental data from patent US20060172993A1 (priority 2002, published 2006).

Tested on: Patients diagnosed with Alzheimer's Disease
Experiment: Adverse events / safety monitoring in the trial
Format: in vivo, human
Procedure: Subjects in the Placebo group received 21 weeks (5 months) of placebo medication.
The safety of the drug was also monitored throughout the study. Blood samples for biochemistry and haematology and random urine sample for urinalysis were taken at each visit and at completion for all efficacy testing. Systolic and diastolic blood pressure were measured in the sitting position, pulse and vital signs were recorded at each visit.

## COc1ccc2c3c1O[C@H]1C[C@@H](O)C=C[C@@]31CCN(C)C2 [GAL, galantamine]
8 mg/day
  Adverse event Agitation, % of patients: (15.0%)
  Adverse event Agitation, number of patients: 21
  Adverse event Anorexia, % of patients: (5.7%)
  Adverse event Anorexia, number of patients: 8
  Adverse event Depression, % of patients: (2.9%)
  Adverse event Depression, number of patients: 4
  Adverse event Diarrhea, % of patients: (5.0%)
  Adverse event Diarrhea, number of patients: 7
  Adverse event Dizziness, % of patients: (5.0%)
  Adverse event Dizziness, number of patients: 7
  Adverse event Dyspepsia, % of patients: (2.9%)
  Adverse event Dyspepsia, number of patients: 4
  Adverse event Edema peripheral, % of patients: (6.4%)
  Adverse event Edema peripheral, number of patients: 9
  Adverse event Fall, % of patients: (7.9%)
  Adverse event Fall, number of patients: 11
  Adverse event Headache, % of patients: (3.6%)
  Adverse event Headache, number of patients: 5
  Adverse event Injury, % of patients: (3.6%)
  Adverse event Injury, number of patients: 5
  Adverse event Nausea, % of patients: (5.7%)
  Adverse event Nausea, number of patients: 8
  Adverse event Rhinitis, % of patients: (6.4%)
  Adverse event Rhinitis, number of patients: 9
  Adverse event Urinary tract infection, % of patients: (7.9%)
  Adverse event Urinary tract infection, number of patients: 11
  Adverse event Vomiting, % of patients: (3.6%)
  Adverse event Vomiting, number of patients: 5
  Adverse event Weight decrease, % of patients: (1.4%)
  Adverse event Weight decrease, number of patients: 2
  Adverse event of clinical interest Bradycardia, % of patients: (3.6%)
  Adverse event of clinical interest Bradycardia, number of patients: 5
  Adverse event of clinical interest Convulsions, number of patients: 0
  Adverse event of clinical interest Fatigue, % of patients: (2.1%)
  Adverse event of clinical interest Fatigue, number of patients: 3
  Adverse event of clinical interest Muscle weakness, % of patients: (0.7%)
  Adverse event of clinical interest Muscle weakness, number of patients: 1
  Adverse event of clinical interest Syncope, % of patients: (1.4%)
  Adverse event of clinical interest Syncope, number of patients: 2
  Serious adverse event Abdominal pain, % of patients: (0.0%)
  Serious adverse event Abdominal pain, number of patients: 0
  Serious adverse event Agitation, % of patients: (1.4%)
  Serious adverse event Agitation, number of patients: 2
  Serious adverse event Asthenia, % of patients: (0.0%)
  Serious adverse event Asthenia, number of patients: 0
  Serious adverse event Basal cell carcinoma, % of patients: (0.0%)
  Serious adverse event Basal cell carcinoma, number of patients: 0
  Serious adverse event Breast neoplasm female, % of patients: (0.0%)
  Serious adverse event Breast neoplasm female, number of patients: 0
  Serious adverse event Cardiac failure, % of patients: (0.0%)
  Serious adverse event Cardiac failure, number of patients: 0
  Serious adverse event Dehydration, % of patients: (0.0%)
  Serious adverse event Dehydration, number of patients: 0
  Serious adverse event Diarrhea, % of patients: (0.0%)
  Serious adverse event Diarrhea, number of patients: 0
  Serious adverse event Dyspnea, % of patients: (0.0%)
  Serious adverse event Dyspnea, number of patients: 0
  Serious adverse event Fall, % of patients: (2.9%)
  Serious adverse event Fall, number of patients: 4
  Serious adverse event Gi haemorrhage, % of patients: (0.0%)
  Serious adverse event Gi haemorrhage, number of patients: 0
  Serious adverse event Injury, % of patients: (0.7%)
  Serious adverse event Injury, number of patients: 1
  Serious adverse event Myocardial infarction, % of patients: (2.1%)
  Serious adverse event Myocardial infarction, number of patients: 3
  Serious adverse event Nausea, % of patients: (0.0%)
  Serious adverse event Nausea, number of patients: 0
  Serious adverse event Pneumonia, % of patients: (0.7%)
  Serious adverse event Pneumonia, number of patients: 1
  Serious adverse event Sepsis, % of patients: (0.0%)
  Serious adverse event Sepsis, number of patients: 0
  Serious adverse event Surgical intervention, % of patients: (0.0%)
  Serious adverse event Surgical intervention, number of patients: 0
  Serious adverse event Syncope, % of patients: (0.7%)
  Serious adverse event Syncope, number of patients: 1
  Serious adverse event Thrombophlebitis deep, % of patients: (0.0%)
  Serious adverse event Thrombophlebitis deep, number of patients: 0
  Serious adverse event Transient ischemic attack, % of patients: (0.7%)
  Serious adverse event Transient ischemic attack, number of patients: 1
  Serious adverse event Urinary tract infection, % of patients: (0.7%)
  Serious adverse event Urinary tract infection, number of patients: 1
  Serious adverse event Vomiting, % of patients: (0.0%)
  Serious adverse event Vomiting, number of patients: 0
  Total patients with any SAE, %: (10.0%)
  Total patients with any SAE, number: 14
16 mg/day
  Adverse event Agitation, % of patients: (10.0%)
  Adverse event Agitation, number of patients: 28
  Adverse event Anorexia, % of patients: (6.5%)
  Adverse event Anorexia, number of patients: 18
  Adverse event Depression, % of patients: (8.6%)
  Adverse event Depression, number of patients: 24
  Adverse event Diarrhea, % of patients: (12.2%)
  Adverse event Diarrhea, number of patients: 34
  Adverse event Dizziness, % of patients: (5.4%)
  Adverse event Dizziness, number of patients: 15
  Adverse event Dyspepsia, % of patients: (4.7%)
  Adverse event Dyspepsia, number of patients: 13
  Adverse event Edema peripheral, % of patients: (2.9%)
  Adverse event Edema peripheral, number of patients: 8
  Adverse event Fall, % of patients: (5.05%)
  Adverse event Fall, number of patients: 14
  Adverse event Headache, % of patients: (6.8%)
  Adverse event Headache, number of patients: 19
  Adverse event Injury, % of patients: (4.3%)
  Adverse event Injury, number of patients: 12
  Adverse event Nausea, % of patients: (13.3%)
  Adverse event Nausea, number of patients: 37
  Adverse event Rhinitis, % of patients: (3.2%)
  Adverse event Rhinitis, number of patients: 9
  Adverse event Urinary tract infection, % of patients: (8.2%)
  Adverse event Urinary tract infection, number of patients: 23
  Adverse event Vomiting, % of patients: (6.1%)
  Adverse event Vomiting, number of patients: 17
  Adverse event Weight decrease, % of patients: (5.4%)
  Adverse event Weight decrease, number of patients: 15
  Adverse event of clinical interest Bradycardia, % of patients: (2.5%)
  Adverse event of clinical interest Bradycardia, number of patients: 7
  Adverse event of clinical interest Convulsions, number of patients: 0
  Adverse event of clinical interest Fatigue, % of patients: (3.6%)
  Adverse event of clinical interest Fatigue, number of patients: 10
  Adverse event of clinical interest Muscle weakness, % of patients: (1.1%)
  Adverse event of clinical interest Muscle weakness, number of patients: 3
  Adverse event of clinical interest Syncope, % of patients: (1.8%)
  Adverse event of clinical interest Syncope, number of patients: 5
  Serious adverse event Abdominal pain, % of patients: (0.7%)
  Serious adverse event Abdominal pain, number of patients: 2
  Serious adverse event Agitation, % of patients: (0.4%)
  Serious adverse event Agitation, number of patients: 1
  Serious adverse event Asthenia, % of patients: (0.7%)
  Serious adverse event Asthenia, number of patients: 2
